Experimental data from patent US20040022834A1, “Pharmaceutical oxan preparation” (priority 2000, published 2004).
Structures can show the parent of a compound that is named as a salt. Where two headings read alike, the source gives them in different places.

Key:
[1] = type: in vitro ADME
From the text: These values are sufficiently high to make it possible to aim at the daily administration, from a transdermal patch, of a quantity of efaroxan base or hydrochloride in the mg range.
FIG. 4 represents the quantities of idazoxan base and hydrochloride released ex vivo using animal skins, in the case of aqueous alcoholic solutions according to the invention.

[2] = ex vivo permeation on animal skins after pretreatment with a promoter (reference batch CM586); type: in vitro ADME; conditions: ratio of quantity accumulated at 24 h, trial (skin pretreated with promoter) to reference batch CM586; as dexefaroxan base
From the text: FIG. 3 represents the quantities expressed as dexefaroxan base of the accumulated quantities (μg/cm^2); it involves comparing the reference batch CM586 with or without individual pretreatment with promoters.

CC[C@]1(C2=NCCN2)Cc2ccccc2O1 [dexefaroxan base]
quantities accumulated at 24 hours [1]: ~8.5 mg/cm^2

CC[C@]1(C2=NCCN2)Cc2ccccc2O1 [dexefaroxan hydrochloride]
quantities accumulated at 24 hours ([1]; 24 h, 10 % m/v): ~1.0 mg/cm^2

c1ccc2c(c1)OCC(C1=NCCN1)O2 (stereo not shown) [idazoxan base, 2-(1,4-benzodiosan-2-yl)-2-imidazoline]
quantities accumulated at 24 hours [1]: ~5 mg/cm^2 | quantities released at 24 h, base form versus hydrochloride [1]: significantly higher

c1ccc2c(c1)OCC(C1=NCCN1)O2 (stereo not shown) [idazoxan hydrochloride, 2-(1,4-benzodiosan-2-yl)-2-imidazoline]
quantities accumulated at 24 hours ([1]; 24 h, 10 % m/v): ~0.25 mg/cm^2

Mannitan oleate
permeation index (PI) [2]: 2.4

Sorbitan monooleate
permeation index (PI) [2]: 2.6
